Reference: ChEMBL document CHEMBL1136339, “The C-4 stereochemistry of leucocyanidin substrates for anthocyanidin synthase affects product selectivity” (2003)

assay: Specific activity of 14CO2 formation from 1-[14C]-2OG corrected for uncoupled turnover in presence of anthocyanin synthase(ANS); assay type: functional

SMILES | Specific activity [ukat kg-1]
Oc1cc(O)c2c(c1)O[C@H](c1ccc(O)c(O)c1)[C@@H](O)[C@@H]2O | 342
Oc1cc(O)c2c(c1)O[C@@H](c1ccc(O)c(O)c1)[C@H](O)[C@@H]2O.Oc1cc(O)c2c(c1)O[C@H](c1ccc(O)c(O)c1)[C@@H](O)[C@H]2O (racemic) | 41
Oc1cc(O)c2c(c1)O[C@@H](c1ccc(O)c(O)c1)[C@H](O)[C@H]2O.Oc1cc(O)c2c(c1)O[C@H](c1ccc(O)c(O)c1)[C@@H](O)[C@@H]2O (racemic) | 145
Oc1cc(O)c2c(c1)O[C@H](c1ccc(O)c(O)c1)[C@@H](O)[C@H]2O | 138

assay: Specific activity of 14CO2 formation from 1-[14C]-2OG in presence of anthocyanin synthase(ANS); assay type: functional

SMILES | Specific activity [ukat kg-1]
Oc1cc(O)c2c(c1)O[C@H](c1ccc(O)c(O)c1)[C@@H](O)[C@@H]2O | 385
Oc1cc(O)c2c(c1)O[C@@H](c1ccc(O)c(O)c1)[C@H](O)[C@@H]2O.Oc1cc(O)c2c(c1)O[C@H](c1ccc(O)c(O)c1)[C@@H](O)[C@H]2O (racemic) | 84.1
Oc1cc(O)c2c(c1)O[C@@H](c1ccc(O)c(O)c1)[C@H](O)[C@H]2O.Oc1cc(O)c2c(c1)O[C@H](c1ccc(O)c(O)c1)[C@@H](O)[C@@H]2O (racemic) | 188.4
Oc1cc(O)c2c(c1)O[C@H](c1ccc(O)c(O)c1)[C@@H](O)[C@H]2O | 181.5
